US20130117887A1, “Herbicide resistant Camelina Sativa” (Agragen Inc, priority 2010, published 2013)

How the values were obtained:
[1] = tested on: transgenic Camelina sativa lines bearing W574L mutated ALS gene; experiment: Seedling herbicide assay, transgenic lines bearing W-mutated (W574L) ALS gene; format: in vivo; conditions: for Effect as compared to control / Highest surviving concentration: Blane Creek
Description: Blane Creek and ALS23.3 (VK10A2.3) of the […] (T3) of Camelina sativa v. Blane Creek. The seedlings were grown one week on various concentrations of herbicides MSU, CSU and IMI. The concentrations are shown in mg/l. Control plate has no herbicide in the grown media.
(§1) Seedlings of the developed transgenic lines of Camelina sativa, cultivars Blane Creek and Calena second (T1) and fourth (T3) generations were exposed to various concentration of three herbicides: imidazolinone (IMI), chlorsulfuron (CSU) and metsulfuron (MSU). Resistance of the transgenic lines was compared to control non-transgenic seedlings of C. sativa cv. Blane Creek.
(§2) Seeds were sterilized in 2% Na-hypocloride and placed on wet filter paper in sterile conditions to allow germination. On the next day well-germinated seedlings were transferred on Petri dishes containing MS (Murasige-Scoog) 0.7% agar (without sucrose or hormones). Each dish contained one from the three herbicides in particular concentration (0.0001, 0.001, 0.01, 0.1, 1.0, 10, 100 mg/l). After one week of cultivation in vitro (+25° C./+18° C.; light/dark) the seedlings were photographed (as shown on the FIGS. 16A-16F). The highest survival concentration was found for each transgenic line and for each herbicide and compared to the non-transgenic control.

[2] = tested on: transgenic Camelina sativa lines bearing A122T mutated ALS gene; experiment: Seedling herbicide assay, transgenic lines bearing A-mutated (A122T) ALS gene; format: in vivo; conditions: for Effect as compared to control / Highest surviving concentration: T1, A122T
Description: Calena, as well as A9.1 (VK14A9.1) and A9.2 (VK14A9.4.2) of the second generation (T1) Camelina sativa v. Blane Creek. The seedlings were grown one week on the various concentrations of herbicides MSU, CSU and IMI. The concentrations are shown in mg/l. Control plate has no herbicide in the grown media.
as §1, §2

[3] = tested on: transgenic C. sativa cv. Celine lines VK6-A1-No24 and VK6-A1-No26 (35S promoter, ALS W574 mutant); experiment: In vitro leaf segment test, transgenic lines; format: cell-based, Camelina sativa; conditions: media with 0.001, 0.01, 0.1, 1.0 mg/l herbicide, FIG. 13
Text: (§3) FIG. 13 In vitro leaf segment test of two transgenic C. sativa cv. Celine lines VK6-A1-No24 (shown as 24 on Petri dishes) and VK6-Al-No26 (shown as 26 on Petri dishes). As a control, leaf segments of herbicide resistant natural mutant of Camelina microcarpa (C.m.) and leaf segments of susceptible C. sativa (C.s.) were used. Leaf segments of transgenic plants are resistant to the herbicides, while non-transgenic Camelina sativa is susceptible. The media in Petri dishes contains herbicides in various concentrations from 0 mg/l in control plate to 0.001, 0.01, 0.1, 1.0 mg/l of IMI, MSU and CSU.
(§4) Celine lines VK6-A1-No24 and VK6-A1-No26 transformed with Al construct (35S promoter—ALS W574 mutant—35S terminator). As controls, we used leaf segments of herbicide resistant natural ALS mutant of Camelina microcarpa that has broad resistance to class-2 herbicides and leaf segments of susceptible Camelina sativa. From the figure it can be clearly seen that leaf segments of transgenic plants are resistant to the herbicides, while non-transgenic Camelina sativa is susceptible.

[4] = tested on: non-transgenic susceptible Camelina sativa leaf segments; experiment: In vitro leaf segment test, non-transgenic control; format: cell-based; conditions: media with 0.001, 0.01, 0.1, 1.0 mg/l herbicide, FIG. 13
Text: as §3, §4

[5] = tested on: transgenic Camelina sativa lines bearing P197S mutated ALS gene; experiment: Seedling herbicide assay, transgenic lines bearing P-mutated (P197S) ALS gene; format: in vivo; conditions: for Effect as compared to control / Highest surviving concentration: T1, P197S
Description: Calena and A 10 (VK14A10.16) of the second generation (T1) Camelina sativa c. Blane Creek. The seedlings were grown one week on various concentrations of herbicides MSU, CSU and IMI. The concentrations are shown in mg/l.
as §1, §2

[6] = tested on: transgenic Camelina sativa lines bearing P197S-W574L mutated ALS gene; experiment: Seedling herbicide assay, transgenic lines bearing double (PW) mutated ALS gene; format: in vivo; conditions: for Effect as compared to control / Highest surviving concentration: Blane Creek, T3, P197S-W574L
Description: Blane Creek. The seedlings were grown one week on the various concentrations of herbicides MSU, CSU and IMI. The concentrations are shown in mg/l. Control plate has no herbicide in the growth media.
as §1, §2

[7] = tested on: non-transgenic seedlings of C. sativa cv. Blane Creek (wild type); experiment: Seedling herbicide assay, highest survival concentration, non-transgenic control; format: in vivo, Camelina sativa; conditions: for Highest surviving concentration: seedlings one week on MS agar
Text: as §1, §2

[8] = tested on: transgenic Camelina sativa lines bearing A122T-P197S-W574L mutated ALS gene; experiment: Seedling herbicide assay, transgenic lines bearing triple (APW) mutated ALS gene; format: in vivo; conditions: Blane Creek, T3, A122T-P197S-W574L
Description: Blane Creek. The seedlings were grown one week on various concentrations of herbicides MSU, CSU and IMI. The concentrations are shown in mg/l. Control plate has no herbicide in the grown media.
as §1, §2

[9] = line ALS23.3 (VK10A2.3), T3, W574L
[10] = line A9.1 (VK14A9.1), Blane Creek
[11] = line A9.2 (VK14A9.4.2), Blane Creek
[12] = line A10 (VK14A10.16), Blane Creek

Compound	spectrum of resistance of mutation W [1]	Effect as compared to control ([1]; line A2 (VK10A2.2), T1, W574L)	Highest surviving concentration ([1]; line A2 (VK10A2.2), T1, W574L) [mg/L]	Effect as compared to control [1, 9]	Highest surviving concentration [1, 9] [mg/L]	Effect as compared to control ([2]; line A3 (VK9A3.4.1), Calena)	Highest surviving concentration ([2]; line A3 (VK9A3.4.1), Calena) [mg/L]	Effect as compared to control [2, 10]	Highest surviving concentration [2, 10] [mg/L]	Effect as compared to control [2, 11]	Highest surviving concentration [2, 11] [mg/L]	response of leaf segments to the herbicides [3]	response of leaf segments to the herbicides [4]	Effect as compared to control ([5]; line A4 (VK9A4.4.2), Calena)	Highest surviving concentration ([5]; line A4 (VK9A4.4.2), Calena) [mg/L]	Effect as compared to control [5, 12]	Highest surviving concentration [5, 12] [mg/L]	Effect as compared to control ([6]; line ALS7.3 (KK24A14.4))	Highest surviving concentration ([6]; line ALS7.3 (KK24A14.4)) [mg/L]	Effect as compared to control ([6]; line ALS8.3 (KK18A8))	also measured
COc1nc(C)nc(NC(=O)NS(=O)(=O)c2ccccc2Cl)n1 [CSU, Chlorsulfuron]	good resistance	10 000	10	1 000	1.0	10	0.01	1	0.001	10	0.01	resistant	susceptible	10 000	10	1 000	1.0	10 000	10	10 000	spectrum of resistance of mutation P [5]: specifically increased resistance; Highest surviving concentration ([6]; line ALS8.3 (KK18A8)): 10 mg/L; Effect as compared to control [7]: 1; Highest surviving concentration [7]: 0.001 mg/L; Effect as compared to control ([8]; line ALS 11.3 (VK10A5.3)): 10 000; Highest surviving concentration ([8]; line ALS 11.3 (VK10A5.3)): 10 mg/L; Effect as compared to control ([8]; line ALS22.3 (VK13A15.12)): 10 000; Highest surviving concentration ([8]; line ALS22.3 (VK13A15.12)): 10 mg/L
COC(=O)c1ccccc1S(=O)(=O)NC(=O)Nc1nc(C)nc(OC)n1 [MSU, Metsulfuron-methyl]	less effective	100	0.1	100	0.1	10	0.01	1	0.001	1	0.001	resistant	susceptible	10	0.01	10	0.01	1 000	1.0	1 000	Highest surviving concentration ([6]; line ALS8.3 (KK18A8)): 1.0 mg/L; increase in resistance as compared to non-transgenic control ([6]; lines bearing double mutations PW): 1 000; Effect as compared to control [7]: 1; Highest surviving concentration [7]: 0.001 mg/L; Effect as compared to control ([8]; line ALS 11.3 (VK10A5.3)): 100; Highest surviving concentration ([8]; line ALS 11.3 (VK10A5.3)): 0.1 mg/L; Effect as compared to control ([8]; line ALS22.3 (VK13A15.12)): 1 000; Highest surviving concentration ([8]; line ALS22.3 (VK13A15.12)): 1.0 mg/L
COCc1cnc(C2=NC(C)(C(C)C)C(=O)N2)c(C(=O)O)c1 (stereo not drawn) [IMI, Imazamox]	good resistance	10 000	100	1 000	10	1 000	10	100	1.0	1 000	10	resistant	susceptible	10	0.1	10	0.1	1 000	10	1 000	spectrum of resistance of mutation A [2]: specifically increased resistance; Highest surviving concentration ([6]; line ALS8.3 (KK18A8)): 10 mg/L; Effect as compared to control [7]: 1; Highest surviving concentration [7]: 0.01 mg/L; Effect as compared to control ([8]; line ALS 11.3 (VK10A5.3)): 1 000; Highest surviving concentration ([8]; line ALS 11.3 (VK10A5.3)): 10 mg/L; Effect as compared to control ([8]; line ALS22.3 (VK13A15.12)): 1 000; Highest surviving concentration ([8]; line ALS22.3 (VK13A15.12)): 10 mg/L
